The test system of one assay is HCT116 WT cells. The assay is described as follows: HCT116 WT (parent) cell line proliferation / cell viability (CellTiter-Glo, 6 days). The assay is classed as cell-based. Particulars: Homo sapiens, HCT-116, 144 h, 6 days treatment. A digest of the protocol: (§1)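 Anti-proliferative IC50s were derived from CellTiter-Glo signal in HCT116 parent and MTAP-null cells after six days on compound. Serial dilutions reached top concentrations of 1, 10 or 50 μM, with DMSO-only wells as control.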

The subject of another assay is HCT116 MTAP null cells. The experiment in a line: HCT116 MTAP null cell line proliferation / cell viability (CellTiter-Glo, 6 days). The assay is classed as cell-based. The settings on record: 144 h; HCT116 MTAP null cells, 6 days treatment, CellTiter-Glo cell viability; read-out: HCT-116 MTAP null IC50. Put shortly:
as §1
For orientation: In ATP-based viability assays light output follows the ATP content of the culture.

In the case of `CCN(C(=O)c1ccc2nc(N)c3c(c2c1)COC3)[C@@H]1COc2cc(C(F)(F)F)ccc21` (single isomer, unassigned) [Example 533], the IC50 in the assay with HCT116 WT cells was 0.816 µM; in the assay with HCT116 MTAP null cells, 0.017 µM.

Take `CCN(C(=O)c1ccc2nc(N)c3c(c2c1)COC3)[C@H]1COc2cc(C(F)(F)F)ccc21` (single isomer, unassigned) [Example 534]: the figures for the IC50 with HCT116 WT cells and in the assay with HCT116 MTAP null cells were 23.9 µM and 1.73 µM, respectively.

`Nc1nc2ccc(C(=O)N(CC3CC3)[C@@H]3COc4cc(C(F)(F)F)ccc43)cc2c2c1COC2` (single isomer, unassigned) [Example 535]: the values for the half-maximal inhibitory concentration (IC50) in the assay with HCT116 WT cells and with HCT116 MTAP null cells were 0.198 µM and 0.007 µM, respectively.

For `Nc1nc2ccc(C(=O)N(CC3CC3)[C@H]3COc4cc(C(F)(F)F)ccc43)cc2c2c1COC2` (single isomer, unassigned) [Example 536], the IC50 in the assay with HCT116 WT cells came to 11.7 µM; in the assay on HCT116 MTAP null cells, 0.728 µM.

On to `C[C@H]1OCc2c1c(N)nc1ccc(C(=O)N(C)[C@@H]3COc4cc(C(F)(F)F)ccc43)cc21` (single isomer, unassigned) [Example 537], for which the IC50 in the assay on HCT116 WT cells came out at 0.881 µM; with HCT116 MTAP null cells, 0.021 µM.

Regarding `C[C@H]1OCc2c1c(N)nc1ccc(C(=O)N(C)[C@H]3COc4cc(C(F)(F)F)ccc43)cc21` (single isomer, unassigned) [Example 538], the IC50 with HCT116 WT cells is 23.7 µM; in the assay on HCT116 MTAP null cells, 1.84 µM.

For the molecule `CCN(C(=O)c1ccc2nc(N)c3c(c2c1)CO[C@@H]3C)[C@@H]1COc2cc(C(F)(F)F)ccc21` (single isomer, unassigned) [Example 539], the 50% inhibitory concentration (IC50) in the assay with HCT116 WT cells worked out at 0.663 µM; with HCT116 MTAP null cells it was 0.015 µM.

With `CCN(C(=O)c1ccc2nc(N)c3c(c2c1)CO[C@@H]3C)[C@H]1COc2cc(C(F)(F)F)ccc21` (single isomer, unassigned) [Example 540], the IC50 in the assay on HCT116 WT cells stood at 18.6 µM; in the assay on HCT116 MTAP null cells it was 0.722 µM.

As for `CN(C(=O)c1cc2c3c(c(N)nc2cn1)COC3)[C@@H]1COc2cc(C#N)ccc21` (single isomer, unassigned) [Example 541], the IC50 was 3.8 µM with HCT116 WT cells and 0.077 µM in the assay on HCT116 MTAP null cells.

`CN(C(=O)c1cc2c3c(c(N)nc2cn1)COC3)[C@@H]1COc2cc(C(F)(F)F)ncc21` (single isomer, unassigned) [Example 542]: the half-inhibitory concentration (IC50) in the assay on HCT116 WT cells stood at 46 µM; with HCT116 MTAP null cells, 0.785 µM.

Take `CCN(C(=O)c1cc2c3c(c(N)nc2cn1)COC3)[C@@H]1COc2cc(C(F)(F)F)ccc21` (single isomer, unassigned) [Example 543]: the results for the IC50 in the assay on HCT116 WT cells and in the assay on HCT116 MTAP null cells were 1.46 µM and 0.049 µM, respectively.

Consider `CCN(C(=O)c1cc2c3c(c(N)nc2cn1)COC3)[C@H]1COc2cc(C(F)(F)F)ccc21` (single isomer, unassigned) [Example 544], for which the half-maximal inhibitory concentration (IC50) with HCT116 WT cells worked out at 15.2 µM; with HCT116 MTAP null cells it was 5.23 µM.

Regarding `CN(C(=O)c1cc2c3c(c(N)nc2cn1)COC3)[C@@H]1COc2cc(C(F)(F)F)cc(F)c21` (single isomer, unassigned) [Example 545], the half-inhibitory concentration (IC50) came out at 3.25 µM in the assay with HCT116 WT cells and 0.068 µM in the assay with HCT116 MTAP null cells.

Consider `CN(C(=O)c1cc2c3c(c(N)nc2cn1)COC3)[C@H]1COc2cc(C(F)(F)F)cc(F)c21` (single isomer, unassigned) [Example 546], for which the IC50 in the assay on HCT116 WT cells was found to be 30.7 µM; with HCT116 MTAP null cells, 9.59 µM.

As to `Nc1nc2cnc(C(=O)N(C3CC3)[C@@H]3COc4cc(C(F)(F)F)ccc43)cc2c2c1COC2` (single isomer, unassigned) [Example 547], the IC50 came out at 2.46 µM in the assay on HCT116 WT cells and 0.122 µM with HCT116 MTAP null cells.

Turning to `CN(C(=O)c1cc2c3c(c(N)nc2cn1)COC3)[C@@H]1COc2cc(Cl)c(C(F)(F)F)cc21` (single isomer, unassigned) [Example 548], the half-maximal inhibitory concentration (IC50) with HCT116 WT cells was 3.06 µM; in the assay with HCT116 MTAP null cells, 0.058 µM.

In the case of `CN(C(=O)c1cc2c3c(c(N)nc2cc1F)COC3)[C@@H]1COc2cc(C#N)ccc21` (single isomer, unassigned) [Example 551], the IC50 in the assay on HCT116 WT cells is 1.34 µM; in the assay with HCT116 MTAP null cells, 0.017 µM.

Turning to `CN(C(=O)c1cc2c3c(c(N)nc2cc1F)COC3)[C@@H]1COc2cc(C(F)(F)F)ccc21` (single isomer, unassigned) [Example 552], the IC50 in the assay on HCT116 WT cells turned out to be 1.22 µM; in the assay with HCT116 MTAP null cells it was 0.034 µM.

On to `CN(C(=O)c1cc2c3c(c(N)nc2cc1F)COC3)[C@H]1COc2cc(C(F)(F)F)ccc21` (single isomer, unassigned) [Example 553], for which the half-maximal inhibitory concentration (IC50) turned out to be 11.4 µM with HCT116 WT cells and 1.38 µM in the assay on HCT116 MTAP null cells.

`Nc1nc2cc(F)c(C(=O)N(C3CC3)[C@@H]3COc4cc(C(F)(F)F)ccc43)cc2c2c1COC2` (single isomer, unassigned) [Example 554]: the values for the 50% inhibitory concentration (IC50) with HCT116 WT cells and with HCT116 MTAP null cells were 1.4 µM and 0.021 µM, respectively.

For `Nc1nc2cc(F)c(C(=O)N(C3CC3)[C@H]3COc4cc(C(F)(F)F)ccc43)cc2c2c1COC2` (single isomer, unassigned) [Example 555], the IC50 came to 13.3 µM in the assay with HCT116 WT cells and 1.62 µM in the assay with HCT116 MTAP null cells.

Turning to `Nc1nc2cc(F)c(C(=O)N(CC3CC3)[C@@H]3COc4cc(C(F)(F)F)ccc43)cc2c2c1COC2` (single isomer, unassigned) [Example 556], the values for the concentration for half-maximal inhibition (IC50) in the assay with HCT116 WT cells and in the assay on HCT116 MTAP null cells were 0.133 µM and 0.011 µM, respectively.

Take `Nc1nc2cc(F)c(C(=O)N(CC3CC3)[C@H]3COc4cc(C(F)(F)F)ccc43)cc2c2c1COC2` (single isomer, unassigned) [Example 557]: the half-maximal inhibitory concentration (IC50) in the assay with HCT116 WT cells was found to be 10.5 µM; in the assay on HCT116 MTAP null cells, 0.665 µM.

Take `CN(C(=O)c1cc2c3c(c(N)nc2cc1Cl)COC3)[C@@H]1CCc2nc(C(F)(F)F)ccc21` (single isomer, unassigned) [Example 558]: the IC50 came to 0.941 µM in the assay with HCT116 WT cells and 0.017 µM with HCT116 MTAP null cells.

On to `CN(C(=O)c1cc2c3c(c(N)nc2cc1Cl)COC3)[C@H]1CCc2nc(C(F)(F)F)ccc21` (single isomer, unassigned) [Example 559], for which the IC50 was found to be 41.4 µM in the assay with HCT116 WT cells and 1.28 µM in the assay on HCT116 MTAP null cells.

For `CN(C(=O)c1cc2c3c(c(N)nc2cc1Cl)COC3)[C@@H]1COc2cc(C(F)(F)F)ccc21` (single isomer, unassigned) [Example 560], the IC50 in the assay with HCT116 WT cells stood at 0.594 µM; in the assay on HCT116 MTAP null cells it was 0.012 µM.

As to `CN(C(=O)c1cc2c3c(c(N)nc2cc1Cl)COC3)[C@H]1COc2cc(C(F)(F)F)ccc21` (single isomer, unassigned) [Example 561], the IC50 in the assay with HCT116 WT cells worked out at 10.8 µM; in the assay on HCT116 MTAP null cells it was 0.657 µM.

With `CN(C(=O)c1cc2c3c(c(N)nc2cc1Cl)COC3)[C@@H]1COc2nc(C(F)(F)F)ccc21` (single isomer, unassigned) [Example 562], the 50% inhibitory concentration (IC50) in the assay with HCT116 WT cells came out at 1.82 µM; in the assay on HCT116 MTAP null cells, 0.026 µM.

`CN(C(=O)c1cc2c3c(c(N)nc2cc1Cl)COC3)[C@H]1COc2nc(C(F)(F)F)ccc21` (single isomer, unassigned) [Example 563]: the IC50 in the assay on HCT116 WT cells is 25.1 µM; in the assay on HCT116 MTAP null cells, 1.96 µM.

As for `CN(C(=O)c1cc2c3c(c(N)nc2cc1Cl)COC3)[C@@H]1COc2cc(S(C)(=O)=O)ccc21` (single isomer, unassigned) [Example 564], the IC50 turned out to be 0.925 µM in the assay on HCT116 WT cells and 0.019 µM in the assay on HCT116 MTAP null cells.

On to `CN(C(=O)c1cc2c3c(c(N)nc2cc1Cl)COC3)[C@H]1COc2cc(S(C)(=O)=O)ccc21` (single isomer, unassigned) [Example 565], for which the half-inhibitory concentration (IC50) in the assay on HCT116 WT cells was found to be 15 µM; in the assay with HCT116 MTAP null cells, 0.858 µM.

Take `CN(C(=O)c1cc2c3c(c(N)nc2cc1Cl)COC3)[C@@H]1COc2cc(C(F)(F)F)cc(F)c21` (single isomer, unassigned) [Example 566]: the results for the IC50 in the assay on HCT116 WT cells and in the assay on HCT116 MTAP null cells were 0.447 µM and 0.013 µM, respectively.

Take `CN(C(=O)c1cc2c3c(c(N)nc2cc1Cl)COC3)[C@H]1COc2cc(C(F)(F)F)cc(F)c21` (single isomer, unassigned) [Example 567]: the concentration for half-maximal inhibition (IC50) was 9.87 µM in the assay with HCT116 WT cells and 0.313 µM in the assay with HCT116 MTAP null cells.

For `CN(C(=O)c1cc2c(cn1)nc(N)c1cnn(C)c12)[C@@H]1COc2cc(C(F)(F)F)ncc21` (single isomer, unassigned) [Example 568], the IC50 worked out at 5.8 µM in the assay on HCT116 WT cells and 0.097 µM in the assay on HCT116 MTAP null cells.

Take `CN(C(=O)c1cc2c(cc1F)nc(N)c1cnn(C)c12)[C@@H]1COc2cc(OC(F)F)ccc21` (single isomer, unassigned) [Example 569]: the half-inhibitory concentration (IC50) in the assay with HCT116 WT cells came to 0.222 µM; in the assay on HCT116 MTAP null cells, 0.006 µM.

On to `CN(C(=O)c1cc2c(cc1F)nc(N)c1cnn(C)c12)[C@H]1COc2cc(OC(F)F)ccc21` (single isomer, unassigned) [Example 570], for which the 50% inhibitory concentration (IC50) came out at 9.21 µM in the assay with HCT116 WT cells and 0.134 µM with HCT116 MTAP null cells.

For `CN(C(=O)c1cc2c(cc1F)nc(N)c1cnn(C)c12)[C@@H]1COc2cc(C(F)(F)F)ccc21` (single isomer, unassigned) [Example 571], the IC50 was determined as 0.116 µM with HCT116 WT cells and 0.01 µM in the assay with HCT116 MTAP null cells.

Regarding `CN(C(=O)c1cc2c(cc1F)nc(N)c1cnn(C)c12)[C@H]1COc2cc(C(F)(F)F)ccc21` (single isomer, unassigned) [Example 572], the figures for the IC50 in the assay on HCT116 WT cells and with HCT116 MTAP null cells were 11.3 µM and 0.758 µM, respectively.

Take `CN(C(=O)c1cc2c(cc1F)nc(N)c1cnn(C)c12)[C@@H]1COc2cc(C(F)(F)F)ncc21` (single isomer, unassigned) [Example 573]: the half-maximal inhibitory concentration (IC50) with HCT116 WT cells came out at 0.685 µM; in the assay on HCT116 MTAP null cells it was 0.012 µM.

`CN(C(=O)c1cc2c(cc1F)nc(N)c1cnn(C)c12)[C@H]1COc2cc(C(F)(F)F)ncc21` (single isomer, unassigned) [Example 574]: the IC50 in the assay with HCT116 WT cells is 40.1 µM; with HCT116 MTAP null cells it was 0.415 µM.

Regarding `CN(C(=O)c1ccc2nc(N)c3c(cnn3C)c2c1)[C@@H]1COc2cc(C(F)(F)F)ccc21` (single isomer, unassigned) [Example 575], the values for the IC50 with HCT116 WT cells and with HCT116 MTAP null cells were 7.61 µM and 0.179 µM, respectively.

Take `CN(C(=O)c1ccc2nc(N)c3c(cnn3C)c2c1)[C@H]1COc2cc(C(F)(F)F)ccc21` (single isomer, unassigned) [Example 576]: the results for the IC50 in the assay on HCT116 WT cells and in the assay with HCT116 MTAP null cells were 13.2 µM and 4.92 µM, respectively.

What is called IC50 is the concentration needed to halve the response being measured.

Values taken from US20240124442A1, “TRICYCLIC-AMIDO-BICYCLIC PRMT5 INHIBITORS” (AMGEN INC., priority 2021, published 2024).
